Results from ChEMBL document CHEMBL2021924, “Identification of novel telomeric G-quadruplex-targeting chemical scaffolds through screening of three NCI libraries” (Bioorg Med Chem Lett, 2012).

What was measured:
Format in all cases: nucleic-acid assay
Nucleic Acid [1] = test: Stabilization of human G-quadruplex F21T assessed as change in melting temperature at 1 uM by FRET assay
Nucleic Acid [2] = test: Stabilization of DNA duplex hairpin structure assessed as change in melting temperature at 1 uM by FRET assay
Nucleic Acid [3] = test: Stabilization of human G-quadruplex F21T assessed as change in melting temperature at 5 uM by FRET assay

Q: Which ΔTm (Nucleic Acid [1]) does the source give for `CN(C)c1ccc(Nc2c3ccc(NC(=O)CCN4CCCC4)cc3nc3cc(NC(=O)CCN4CCCC4)ccc23)cc1` here?
A: Its ΔTm is 29.5 °C.

Q: And the ΔTm (Nucleic Acid [2])?
A: Its ΔTm is 8.8 °C.

Q: With `Cc1ccc2c(ccc(/C=C/c3ccc(O)c4ncccc34)[n+]2C)c1` as the molecule, how does the ΔTm (Nucleic Acid [1]) read?
A: Its ΔTm is 12.4 °C.

Q: And the ΔTm (Nucleic Acid [2])?
A: The ΔTm was 0 °C.

Q: What about the ΔTm (Nucleic Acid [3]) of the same molecule?
A: Its ΔTm is 22.9 °C.

Q: For `N=C(N)c1ccc(/C=C/c2ccc(C(=N)N)cc2O)cc1`, which ΔTm (Nucleic Acid [1]) is on record?
A: The ΔTm was 17.3 °C.

Q: And the ΔTm (Nucleic Acid [2])?
A: The ΔTm was 3.2 °C.

Q: And the ΔTm (Nucleic Acid [3])?
A: Its ΔTm is 26.3 °C.

Q: `O=C(Nc1ccc(C2=NCCN2)cc1)c1ccc(C(=O)Nc2ccc(C3=NCCN3)cc2)c(Cl)c1` was tested. Which ΔTm (Nucleic Acid [1]) did it give?
A: The ΔTm was 8.4 °C.

Q: What about the ΔTm (Nucleic Acid [2]) of the same molecule?
A: The ΔTm was 1.4 °C.

Q: What about the ΔTm (Nucleic Acid [3]) of the same molecule?
A: Its ΔTm is 20.4 °C.

Q: `CCN1C=C/C(=C\C=C\c2cc[n+](CC)c3ccccc23)c2ccccc21` was tested. Which ΔTm (Nucleic Acid [1]) did it give?
A: The ΔTm was 11.2 °C.

Q: And the ΔTm (Nucleic Acid [2])?
A: Its ΔTm is 0.6 °C.

Q: And the ΔTm (Nucleic Acid [3])?
A: The ΔTm was 36.4 °C.

Q: With `CCN(CC)Cc1cc2[nH]c3c4ccc(Cl)cc4ncc3c2cc1OC` as the molecule, how does the ΔTm (Nucleic Acid [1]) read?
A: Its ΔTm is 15 °C.

Q: And the ΔTm (Nucleic Acid [2])?
A: The ΔTm was 0.7 °C.

Q: What about the ΔTm (Nucleic Acid [3]) of the same molecule?
A: Its ΔTm is 25.9 °C.

Q: For `COc1cc(Cc2nccc3cc(OC)c(OC)cc23)c(C(C)=O)cc1OC`, which ΔTm (Nucleic Acid [1]) is on record?
A: Its ΔTm is 8 °C.

Q: What about the ΔTm (Nucleic Acid [2]) of the same molecule?
A: Its ΔTm is 0.4 °C.

Q: What about the ΔTm (Nucleic Acid [3]) of the same molecule?
A: The ΔTm was 36.7 °C.

Q: What does the source list for `CCN(CC)CCNc1ccc2nc(C)n3c4ccc(OC)cc4c(=O)c1c23`?
A: ΔTm (Nucleic Acid [1]): 4.2 °C; ΔTm (Nucleic Acid [2]): 2.6 °C; ΔTm (Nucleic Acid [3]): 15.2 °C

Q: `COc1cc2cc3c4cc(OC)c(OC)cc4cc[n+]3c(C)c2cc1OC.O=C([O-])CS(=O)(=O)O` was tested. Which ΔTm (Nucleic Acid [1]) did it give?
A: The ΔTm was 29.9 °C.

Q: And the ΔTm (Nucleic Acid [2])?
A: Its ΔTm is 3.2 °C.

Q: And the ΔTm (Nucleic Acid [3])?
A: The ΔTm was 42.6 °C.

Q: What does the source list for `Cc1cc2nc3ccc(N(C)C)cc3[s+]c2cc1N`?
A: ΔTm (Nucleic Acid [1]): 20.3 °C; ΔTm (Nucleic Acid [2]): 1.8 °C; ΔTm (Nucleic Acid [3]): 35.1 °C

Q: Which results are given for `COc1ccc2c(NCCCCCCNc3c4ccccc4nc4cc(OC)ccc34)c3ccccc3nc2c1`?
A: ΔTm (Nucleic Acid [1]): 30.5 °C; ΔTm (Nucleic Acid [2]): 3.9 °C; ΔTm (Nucleic Acid [3]): 39 °C

Q: Which ΔTm (Nucleic Acid [1]) does the source give for `O=C(Nc1ccc(C2=NCCCN2)cc1)Nc1ccc(C2=NCCCN2)cc1` here?
A: Its ΔTm is 20.1 °C.

Q: And the ΔTm (Nucleic Acid [2])?
A: Its ΔTm is 2.9 °C.

Q: And the ΔTm (Nucleic Acid [3])?
A: The ΔTm was 21.5 °C.

Q: What does the source list for `Cc1cc(NCCCCCCCNc2cc(C)nc3cc(N)ccc23)c2ccc(N)cc2n1`?
A: ΔTm (Nucleic Acid [1]): 11.8 °C; ΔTm (Nucleic Acid [2]): 0.6 °C; ΔTm (Nucleic Acid [3]): 38.7 °C

Q: Which results are given for `COc1ccc2cc3[n+](cc2c1OC)CCc1cc2c(cc1-3)OCO2`?
A: ΔTm (Nucleic Acid [1]): 9.7 °C; ΔTm (Nucleic Acid [2]): 0.3 °C; ΔTm (Nucleic Acid [3]): 23.8 °C

Q: Which results are given for `O=C(Nc1ccc(C2=NCCN2)cc1)c1ccc(C(=O)Nc2ccc(C3=NCCN3)cc2)c([N+](=O)[O-])c1`?
A: ΔTm (Nucleic Acid [1]): 13.3 °C; ΔTm (Nucleic Acid [2]): 3.4 °C; ΔTm (Nucleic Acid [3]): 33.2 °C

Q: `COc1cc2c3c(n(C)c(=O)c2cc1OC)-c1cc2c(cc1C3=O)OCO2` was tested. Which ΔTm (Nucleic Acid [1]) did it give?
A: Its ΔTm is 8.1 °C.

Q: What about the ΔTm (Nucleic Acid [2]) of the same molecule?
A: The ΔTm was 0.3 °C.

Q: And the ΔTm (Nucleic Acid [3])?
A: Its ΔTm is 18.8 °C.

Q: For `Cc1ccc(NC(=O)Nc2nc3ccccc3s2)cc1NC(=O)Nc1nc2ccccc2s1`, which ΔTm (Nucleic Acid [1]) is on record?
A: The ΔTm was 22.7 °C.

Q: What about the ΔTm (Nucleic Acid [2]) of the same molecule?
A: Its ΔTm is 0.4 °C.

Q: What about the ΔTm (Nucleic Acid [3]) of the same molecule?
A: The ΔTm was 26.6 °C.

Q: How did the ΔTm (Nucleic Acid [1]) turn out when `CN(C)c1ccc(C=c2c3ccccc3n3c2cc(-c2ccc(Cl)cc2)[n+]3C)cc1` was run?
A: Its ΔTm is 1.3 °C.

Q: What about the ΔTm (Nucleic Acid [2]) of the same molecule?
A: The ΔTm was 0.3 °C.

Q: And the ΔTm (Nucleic Acid [3])?
A: The ΔTm was 22.1 °C.

Q: With `Cc1cc(N)c2ccccc2[n+]1CCCCCCCCCC[n+]1c(C)cc(N)c2ccccc21` as the molecule, how does the ΔTm (Nucleic Acid [1]) read?
A: The ΔTm was 19.5 °C.

Q: And the ΔTm (Nucleic Acid [2])?
A: Its ΔTm is 1.3 °C.

Q: What about the ΔTm (Nucleic Acid [3]) of the same molecule?
A: The ΔTm was 40.7 °C.

Q: `Cc1cc(N)c2cc(NC(=O)/C=C/c3ccccc3Cl)ccc2n1` was tested. Which ΔTm (Nucleic Acid [1]) did it give?
A: Its ΔTm is 7.3 °C.

Q: And the ΔTm (Nucleic Acid [2])?
A: Its ΔTm is 0.4 °C.

Q: And the ΔTm (Nucleic Acid [3])?
A: The ΔTm was 19.7 °C.

Q: For `CC(=O)N(C)c1ccc(Nc2cc(C)nc3ccc4nc[nH]c4c23)cc1`, which ΔTm (Nucleic Acid [1]) is on record?
A: The ΔTm was 15.8 °C.

Q: And the ΔTm (Nucleic Acid [2])?
A: The ΔTm was 0.4 °C.

Q: And the ΔTm (Nucleic Acid [3])?
A: Its ΔTm is 31.1 °C.

Q: `O=C(Nc1ccc(C2=NCCN2)cc1)c1ccc(Cl)c(C(=O)Nc2ccc(C3=NCCN3)cc2)c1` was tested. Which ΔTm (Nucleic Acid [1]) did it give?
A: The ΔTm was 24.2 °C.

Q: What about the ΔTm (Nucleic Acid [2]) of the same molecule?
A: The ΔTm was 1.4 °C.

Q: And the ΔTm (Nucleic Acid [3])?
A: The ΔTm was 37.3 °C.

Q: What does the source list for `COc1ccc2c(=O)oc3c(OC)cc(CCN(C)C)c4c(=O)oc1c2c34`?
A: ΔTm (Nucleic Acid [1]): 13.2 °C; ΔTm (Nucleic Acid [2]): 1.7 °C; ΔTm (Nucleic Acid [3]): 24 °C

Q: For `c1ccc2c(NCCCCCCCCNc3c4ccccc4nc4ccccc34)c3ccccc3nc2c1`, which ΔTm (Nucleic Acid [1]) is on record?
A: Its ΔTm is 3 °C.

Q: And the ΔTm (Nucleic Acid [2])?
A: The ΔTm was 0.7 °C.

Q: And the ΔTm (Nucleic Acid [3])?
A: The ΔTm was 38.5 °C.
